For four compounds, DC50 results are on record in patent US20240190880A1 (THE REGENTS OF THE UNIVERSITY OF MICHIGAN, priority 2021, published 2024).

This experiment addresses T1, ER (Homo sapiens, UniProt P03372).
T1 construct: host or cells: T47D and MCF7 human breast cancer cells
T1 sequence (P03372 1-595): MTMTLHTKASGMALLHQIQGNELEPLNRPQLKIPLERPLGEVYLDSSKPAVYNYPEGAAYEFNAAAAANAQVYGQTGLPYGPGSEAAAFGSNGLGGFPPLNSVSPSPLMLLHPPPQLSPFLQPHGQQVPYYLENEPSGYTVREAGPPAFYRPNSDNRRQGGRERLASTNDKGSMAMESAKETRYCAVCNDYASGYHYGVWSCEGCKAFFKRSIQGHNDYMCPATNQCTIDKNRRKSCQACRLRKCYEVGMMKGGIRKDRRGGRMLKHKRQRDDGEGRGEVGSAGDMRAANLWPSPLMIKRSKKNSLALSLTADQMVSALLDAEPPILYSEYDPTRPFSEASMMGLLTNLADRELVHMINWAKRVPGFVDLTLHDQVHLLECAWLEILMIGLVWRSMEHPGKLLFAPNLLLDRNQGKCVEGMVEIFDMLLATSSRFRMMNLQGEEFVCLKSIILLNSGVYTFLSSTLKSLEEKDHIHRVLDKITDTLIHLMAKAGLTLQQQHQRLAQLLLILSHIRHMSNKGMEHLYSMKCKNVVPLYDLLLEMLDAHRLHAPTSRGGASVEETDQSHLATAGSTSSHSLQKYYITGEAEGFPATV
Kind of experiment: ER degradation activity, in-cell western blot analysis in T47D cells. The experiment is classed as cell-based. The procedure, abridged:
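T47D cells cultured in DMEM with 10% FBS, treated with compounds (final 0.5% DMSO) for 16 h. ER level measured by in-cell western with anti-rabbit-680/anti-mouse-800 near-infrared detection. Relative ER percentage calculated against untreated and DMSO-treated wells set as 100%.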

The mark [1] stands for this setting: compounds 16 hours, Table A does not say whether T47D or MCF7, read-out: Potency (DC50).
[2] abbreviates: 16 hours, Table A does not say which cell line (T47D or MCF7), read-out: Potency (DC50).

Like-named read-outs stand apart in the source and are kept apart here.

As to `O=C1CCC(N2Cc3cc4c(cc3C2=O)CN(C2CN(CC3CCN(c5ccc([C@@H]6c7ccc(O)cc7CC[C@@H]6c6ccccc6)cc5)CC3)C2)C4=O)C(=O)N1` (stereo partly drawn) [E 505, 2-(2,6-dioxopiperidin-3-yl)-6-(1-((1-(4-((1R,2S)-6-hydroxy-2-phenyl-1,2,3,4-tetrahydronaphthalen-1-yl)phenyl)piperidin-4-yl)methyl)azetidin-3-yl)-2,3,6,7-tetrahydropyrrolo[3,4-f]isoindole-1,5-dione], the DC50 (in general, the concentration giving 50% degradation) under setting [1] was greater than 100 nM. Same read-out and setting: as for `C[C@@H]1Cc2cc(O)ccc2[C@@H](c2ccc(C(=O)N3CCC4(CCC(CN5Cc6cc7c(cc6C5)C(=O)N(C5CCC(=O)NC5=O)C7=O)CC4)CC3)cc2)N1CC(F)F` (stereo partly drawn) [E 454, 6-((3-(4-((1R,3R)-2-(2,2-difluoroethyl)-6-hydroxy-3-methyl-1,2,3,4-tetrahydroisoquinolin-1-yl)benzoyl)-3-azaspiro[5.5]undecan-9-yl)methyl)-2-(2,6-dioxopiperidin-3-yl)-6,7-dihydropyrrolo[3,4-f]isoindole-1,3(2H,5H)-dione], the figure is greater than 100 nM. As to `O=C1CCC(N2C(=O)c3cc4c(cc3C2=O)CN([C@H]2CC[C@H](NC3CCN(c5ccc([C@@H]6c7ccc(O)cc7CC[C@@H]6c6ccccc6)cc5)CC3)CC2)C4)C(=O)N1` (stereo partly drawn) [E 335, 2-(2,6-dioxopiperidin-3-yl)-6-((1R,4r)-4-((1-(4-((1R,2S)-6-hydroxy-2-phenyl-1,2,3,4-tetrahydronaphthalen-1-yl)phenyl)piperidin-4-yl)amino)cyclohexyl)-6,7-dihydropyrrolo[3,4-f]isoindole-1,3(2H,5H)-dione], under setting [2], the DC50 was greater than 100 nM. As for `C[C@@H]1Cc2c([nH]c3ccccc23)[C@@H](c2c(F)cc(CN3CCC4(CCC(C(=O)N5Cc6cc7c(cc6C5)C(=O)N(C5CCC(=O)NC5=O)C7=O)CC4)CC3)cc2F)N1CC(F)F` (stereo partly drawn) [E 382, 6-(3-(4-((1R,3R)-2-(2,2-difluoroethyl)-3-methyl-2,3,4,9-tetrahydro-1H-pyrido[3,4-b]indol-1-yl)-3,5-difluorobenzyl)-3-azaspiro[5.5]undecane-9-carbonyl)-2-(2,6-dioxopiperidin-3-yl)-6,7-dihydropyrrolo[3,4-f]isoindole-1,3(2H,5H)-dione], under setting [2], the DC50 is greater than 100 nM.
